# pIC50: −log10 of the molar value. Structures can show the parent of a compound that is named as a salt. Where two headings read alike, the source gives them in different places.
# Legend:
# [1] = target: bafilomycin-sensitive ATPase in chicken osteoclasts (Gallus gallus, UniProt A0A8V0Z1D5+Q9I8C8); experiment: Inhibition of bafilomycin-sensitive ATPase in chicken osteoclasts; type: biochemical
# Procedure: Vesicles were prepared from medullar bone obtained from tibiae and femurs of egg-laying hens which were calcium-starved for at least 15 days. Briefly, bone fragments were scraped with a 24 scalpel blade, suspended in 40 ml of isolation medium (0.2 M sucrose, 50 mM KCl, 10 mM Hepes, 1 mM EGTA, 2 mM dithiotheitrol, pH 7.4) and filtered through a 100 μm pore size nylon mesh. The whole procedure was performed at 4° C. After homogenisation in a potter (20 strokes) in 40 ml of isolation medium an initial centrifugation (6,500×gmax×20 min) was performed to remove mitochondria and lysosomes. The supernatant was centrifuged at 100,000×gmax for 1 hr and the pellet was collected in 1 ml of isolation medium, divided into 200 μl aliquots, immediately frozen in liquid nitrogen and stored at −80° C. The protein content was determined using a Biorad colourimetric kit according to Bradford [M. Bradford, Anal. Biochem., 72, 248 (1976)]. For the proton transport assay, 5-10 μl of membranes were used.
# Purification of osteoclast membranes. 1 ml of crude microsomal vesicles prepared above were applied (about 0.2 ml per tube) on the top of a sucrose step-gradient consisting of 3.5 ml of 15%, 30% and 45% (w/w) sucrose in isolation medium and centrifuged at 280,000 gmax for 2 hours (SW 41 Ti rotor). After centrifugation the 30-45% sucrose interfaces were collected, diluted approx. 20-fold in isolation medium and pelletted at 100,000 gmax for 1 hour (SW 28 rotor). The pellet was then resuspended in 1 ml of isolation medium, aliquoted and frozen in liquid N2 and stored at −80° C. until used.
# Inhibition of bafilomycin-sensitive ATPase activity was assessed in purified membrane vesicles by measuring the release of inorganic phosphate (Pi) during 30 min of incubation at 37° C. in a 96-well plate either in the presence or in the absence of bafilomycin A1. The reaction medium contained 1 mM ATP, 10 mM HEPES-Tris pH 8, 50 mM KCl, 5 uM valinomycin, 5 uM nigericin, 1 mM CDTA-Tris, 100 uM ammonium molybdate, 0.2 M sucrose and membranes (20 ug protein/ml). The reaction was initiated by MgSO4 (8-arm pipette) and stopped, after 30 min, by addition of 4 volumes of the malachite green reagent (96-arm pipette) prepared according to Chan [Anal. Biochem. 157, 375 (1986)]. Absorbance at 650 nm was measured after 2 min using a microplate reader. Results are expressed as μmol (Pi)×mg protein^−1×hour^−1 and, for each experiment, represent the mean±sem of triplicates.
# [2] = system: human osteoclasts; experiment: Human Osteoclast Resorption Assay; type: cell-based; conditions: human osteoclasts on bone slices
# Procedure: 1) Bone resorption by disaggregated rat osteoclasts can be assessed as described previously in the literature [T. J. Chambers et al., Endocrinology, 1985, 116, 234]. Briefly, osteoclasts were mechanically disaggregated from neonatal rat long bones into Hepes-buffered medium 199 (Flow, UK). The suspension was agitated with a pipette, and the larger fragments were allowed to settle for 30 sec. The cells were then added to two wells of a multiwell dish containing bone slices (each measuring 12 mm^2). After 15 min at 37° C. the bone slices were removed, washed in medium 199 and placed in individual wells of a 96-well plate. […] The number of osteoclasts and bone resorption were quantified by confocal laser scanning microscopy (CLSM): the bone slices were fixed with 2% glutaraldehyde in 0.2 M cacodylate buffer and the osteoclasts on each bone slice were stained for tartrate-resistant acid phosphatase. […] The number and the size of the osteoclastic excavations, the plain area and the volume of bone resorbed was recorded. Results were expressed as mean pit number per bone slice, mean pit number per osteoclast, mean area per osteoclast or mean volume per osteoclast.
# 2) Bone resorption by human osteoclasts can be assessed using a modification of the method above. […] Bone slices were then treated and analysed as described above for the rat osteoclast assay.
# [3] = system: ovariectomised mature rats; experiment: Prevention of bone loss in ovariectomised mature rats; type: in vivo, rat; conditions: % prevention of bone loss versus vehicle treated animals
# Source text: Prevention of bone loss in ovariectomised mature rats. The methodology employed is based on that described by Wronsky et al. [J. Bone Min. Res., 6, 387 (1991)]. The bone loss, prevalently cancellous, occuring after the surgery is monitored by dual emission X-ray absorptiometry (DEXA) measurements of bone mineral density (BMD) of long bones and by HPLC measurements of urinary levels of products of bone collagen breakdown, such as the cross-link residues pyridinoline (PYD), deoxypyridinoline (DPD) and lysine glycosides, i.e. galactosyl-hydroxylysine (GHYL) and glucosyl-galactosyl-hydroxylysine (GGHYL). Groups of 7-10 female Sprague-Dawley rats, about 90 days old and weighing 200-250 g are used. Rats are anesthetised by sodium pentobarbital (35 mg/kg i.v.), laparotomy is performed and ovaries are bilaterally removed. Wounds are adequately disinfected and sutured. A group is sham operated. […] Before and at the end of the experimental period, the bone metaphyseal mineral densities of left distal femur and proximal tibia were evaluated in vivo using lightly anaesthetised animals. Results are expressed as % of prevention of bone loss versus vehicle treated animals, using the following equation, where BMD indicates the bone mineral density at the end of the experimental period and is expressed as the percent of pre-ovariectomy baseline: [formula] […]
# [4] = system: osteoclast proton pump; conditions: avian osteoclast membrane vesicles; cited from earlier work
# [5] = system: osteoclast cultures; conditions: cited from earlier work
# [6] = chicken osteoclast membranes, read-out: IC50 (nM) ATPase assay
# [7] = read-out: IC50 (nM) ATPase assay, chicken osteoclast membranes
# bafilomycin-sensitive ATPase in chicken osteoclasts, sequence (Q9I8C8 entry or part of it): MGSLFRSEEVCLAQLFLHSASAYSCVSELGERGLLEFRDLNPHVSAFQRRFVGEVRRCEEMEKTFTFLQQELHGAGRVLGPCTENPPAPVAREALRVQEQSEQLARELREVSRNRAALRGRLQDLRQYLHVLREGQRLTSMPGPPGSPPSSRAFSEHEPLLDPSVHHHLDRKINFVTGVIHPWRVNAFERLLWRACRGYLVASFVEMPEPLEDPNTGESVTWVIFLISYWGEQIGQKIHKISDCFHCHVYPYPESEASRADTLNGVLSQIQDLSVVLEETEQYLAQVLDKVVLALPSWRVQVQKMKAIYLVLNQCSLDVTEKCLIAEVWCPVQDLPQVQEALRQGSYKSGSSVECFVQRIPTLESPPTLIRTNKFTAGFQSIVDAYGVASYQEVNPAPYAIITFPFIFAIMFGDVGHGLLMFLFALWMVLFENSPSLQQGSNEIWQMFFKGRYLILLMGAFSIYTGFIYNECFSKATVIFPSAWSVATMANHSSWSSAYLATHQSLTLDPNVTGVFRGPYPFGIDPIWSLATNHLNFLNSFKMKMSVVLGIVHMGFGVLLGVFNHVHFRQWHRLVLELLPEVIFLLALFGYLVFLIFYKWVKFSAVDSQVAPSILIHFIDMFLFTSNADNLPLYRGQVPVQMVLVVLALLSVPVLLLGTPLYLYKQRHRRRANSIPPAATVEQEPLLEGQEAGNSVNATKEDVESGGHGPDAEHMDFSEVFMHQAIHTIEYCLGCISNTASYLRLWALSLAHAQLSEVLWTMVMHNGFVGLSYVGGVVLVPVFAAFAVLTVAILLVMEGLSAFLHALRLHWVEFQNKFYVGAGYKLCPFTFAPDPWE
# bafilomycin-sensitive ATPase in chicken osteoclasts, sequence (P49712 whole entry, further chain, the tested form may be a part): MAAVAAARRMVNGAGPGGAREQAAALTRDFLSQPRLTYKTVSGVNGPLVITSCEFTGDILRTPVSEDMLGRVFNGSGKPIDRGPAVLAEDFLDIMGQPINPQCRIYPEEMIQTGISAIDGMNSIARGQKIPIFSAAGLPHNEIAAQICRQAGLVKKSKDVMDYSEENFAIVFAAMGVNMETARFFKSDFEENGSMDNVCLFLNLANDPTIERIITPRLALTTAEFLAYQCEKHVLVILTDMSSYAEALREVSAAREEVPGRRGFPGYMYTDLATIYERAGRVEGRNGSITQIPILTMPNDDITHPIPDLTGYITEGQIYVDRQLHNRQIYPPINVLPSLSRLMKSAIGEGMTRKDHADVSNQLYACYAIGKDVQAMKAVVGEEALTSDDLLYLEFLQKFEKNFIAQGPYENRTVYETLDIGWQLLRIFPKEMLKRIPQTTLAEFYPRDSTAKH
# bafilomycin-sensitive ATPase in chicken osteoclasts, sequence (Q5ZHL0 whole entry, further chain, the tested form may be a part): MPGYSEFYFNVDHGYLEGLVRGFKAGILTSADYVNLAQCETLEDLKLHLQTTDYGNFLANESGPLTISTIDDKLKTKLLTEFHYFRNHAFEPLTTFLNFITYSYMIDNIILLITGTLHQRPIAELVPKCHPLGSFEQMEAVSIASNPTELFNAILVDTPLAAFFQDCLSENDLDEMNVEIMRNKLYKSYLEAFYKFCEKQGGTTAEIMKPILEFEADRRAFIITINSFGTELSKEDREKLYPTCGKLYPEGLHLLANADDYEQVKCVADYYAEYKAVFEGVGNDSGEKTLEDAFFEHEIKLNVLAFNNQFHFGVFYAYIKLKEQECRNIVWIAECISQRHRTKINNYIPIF
# bafilomycin-sensitive ATPase in chicken osteoclasts, sequence (Q90647 whole entry, further chain, the tested form may be a part): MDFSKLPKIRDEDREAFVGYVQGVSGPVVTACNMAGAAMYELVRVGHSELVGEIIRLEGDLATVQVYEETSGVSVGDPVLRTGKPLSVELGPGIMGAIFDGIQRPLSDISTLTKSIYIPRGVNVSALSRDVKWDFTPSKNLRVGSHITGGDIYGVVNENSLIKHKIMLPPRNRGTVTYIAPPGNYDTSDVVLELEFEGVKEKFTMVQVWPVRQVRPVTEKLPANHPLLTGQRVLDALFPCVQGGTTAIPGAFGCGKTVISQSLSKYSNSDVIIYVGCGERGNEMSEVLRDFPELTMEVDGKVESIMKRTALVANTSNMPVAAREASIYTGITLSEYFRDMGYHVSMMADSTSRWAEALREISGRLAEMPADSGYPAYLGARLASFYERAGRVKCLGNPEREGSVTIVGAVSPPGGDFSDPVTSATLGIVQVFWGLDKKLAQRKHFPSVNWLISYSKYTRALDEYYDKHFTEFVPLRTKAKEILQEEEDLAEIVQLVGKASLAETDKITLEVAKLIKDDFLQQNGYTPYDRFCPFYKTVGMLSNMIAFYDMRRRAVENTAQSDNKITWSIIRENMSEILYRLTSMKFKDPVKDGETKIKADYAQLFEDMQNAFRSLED
# bafilomycin-sensitive ATPase in chicken osteoclasts, sequence (A0A8V0Z1D5 entry or part of it): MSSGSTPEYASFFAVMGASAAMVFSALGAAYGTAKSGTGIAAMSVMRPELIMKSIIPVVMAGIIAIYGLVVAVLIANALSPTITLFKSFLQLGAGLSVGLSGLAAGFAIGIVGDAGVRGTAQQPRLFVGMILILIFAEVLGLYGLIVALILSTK
melting point [°C],"IC50 [1, 6] [nM]",Compound,inhibition of proton transport by the osteoclast proton pump [4],other results
245,,"COC(=CC=Cc1cc2cc(Cl)c(Cl)cc2[nH]1)C(=O)NCCCN1C(C)CN(c2ncccn2)CC1C (stereo not shown) (as salt: hydrochloride) [Example 62, (2Z,4E)-5-(5,6-Dichloro-1H-indol-2-yl)-N-[3-[2,6-dimethyl-4-(2-pyrimidinyl)plperazin-1-yl]propyl]-2-methoxy-2,4-pentadienamide hydrochloride]",,
,24,"CO/C(=C\C=C\c1cc2cc(Cl)c(Cl)cc2[nH]1)C(=O)NC1CC(C)(C)N(C)C(C)(C)C1 [Example 1, (2Z,4E)-5-(5,6-Dichloro-1H-indol-2-yl)-2-methoxy-N-(1,2,2,6,6-pentamethylpiperidin-4-yl)-2,4-pentadienamide]",,pIC50 [2]: 8.47; Protection of bone loss in ovariectomised mature rats at 10 mg/kg p.o. [3]: 76%
200 to 201,41,"CO/C(=C\C=C\c1cc2cc(Cl)c(Cl)cc2[nH]1)C(=O)NC1CCCC(N(C)C)C1 (stereo not shown) [Example 61, (2Z,4E)-5-(5,6-Dichloro-1H-indol-2-yl)-N-(3-dimethylamino-cyclohexyl)-2-methoxy-2,4-pentadienamide]",,
,30,"COC(=CC=Cc1cc2cc(Cl)c(Cl)cc2[nH]1)C(=O)NCCCN1C(C)CN(c2ncccn2)CC1C (stereo not shown) [Example 62, (2Z,4E)-5-(5,6-Dichloro-1H-indol-2-yl)-N-[3-[2,6-dimethyl-4-(2-pyrimidinyl)plperazin-1-yl]propyl]-2-methoxy-2,4-pentadienamide hydrochloride]",,
220 to 222,42,"CO/C(=C\C=C\c1cc2cc(Cl)c(Cl)cc2[nH]1)C(=O)NCCCN1CCCN(c2ncccn2)CC1 [Example 74, (2Z,4E)-5-(5,6-Dichloro-1H-indol-2-yl)-N-[3-[4-(2-pyrimidinyl)homopiperazin-1-yl]propyl]-2-methoxy-2,4-pentadienamide]",,
219 to 220,30,"CO/C(=C\C=C\c1cc2cc(Cl)c(Cl)cc2[nH]1)C(=O)NCCCN1CCN(c2ccccn2)CC1 [Example 75, (2Z,4E)-5-(5,6-Dichloro-1H-indol-2-yl)-N-[3-[4-(2-pyridyl)piperazin-1-yl]propyl]-2-methoxy-2,4-pentadienamide]",,
,,CCN1C(=O)C=CC1=O [N-ethylmaleimide],inhibited,
,,Cc1nc2c(OCc3ccccc3)cccn2c1CC#N [SCH 28080],not inhibited,
,,CO/C1=C\C(C)=C\[C@@H](C)[C@@H](O)[C@@H](C)C/C(C)=C/C=C/[C@H](OC)[C@@H]([C@@H](C)[C@@H](O)[C@H](C)[C@@]2(O)C[C@@H](O)[C@H](C)[C@@H](C(C)C)O2)OC1=O [bafilomycin A1],inhibited,inhibition of bone resorption in osteoclast cultures [5]: able to inhibit
,,C[C@@H]1O[C@@H](O[C@H]2C[C@@H](O)[C@]3(CO)[C@H]4[C@H](O)C[C@]5(C)[C@@H](C6=CC(=O)OC6)CC[C@]5(O)[C@@H]4CC[C@]3(O)C2)[C@H](O)[C@H](O)[C@H]1O [ouabain],not inhibited,
,,[Na+].[Na+].[Na+].[O]=[V]([O-])([O-])[O-] [sodium orthovanadate],not inhibited,

Compound,melting point [°C],"IC50 [1, 6] [nM]",inhibition of proton transport by the osteoclast proton pump [4],other results
"CO/C(=C\C=C\c1cc2cc(Cl)c(Cl)cc2[nH]1)C(=O)NCCCN1CCN(c2ccccc2)CC1 [Example 64, (2Z,4E)-5-(5,6-Dichloro-1H-indol-2-yl)-2-methoxy-N-(3-[-4-(phenyl)piperazin-1-yl]propyl] 2,4-pentadienamide]",223 to 225,,,"IC50 [1, 7]: 67 nM"
"CO/C(=C\C=C\c1cc2cc(Cl)c(Cl)cc2[nH]1)C(=O)NCCCN1CCN(c2cccc(Cl)c2)CC1 [Example 68, (2Z,4E)-5-(5,6-Dichloro-1H-indol-2-yl)-N-[3-[-4-(3-chlorophenyl)piperazin-1-yl]propyl]-2-methoxy-2,4 pentadienamide]",192 to 193,,,"IC50 [1, 7]: 18 nM"
"(2Z,4E)-5-(5,6-Dichloro-1H- indol-2-yl)-N-(2a beta, 4a alpha, 6 beta, 7a alpha- decahydro-pyrrolo[2.1.5- cd]indolizyn-6-yl)-2- methoxy-2,4- pentadienamide [Example 55]",,23,,

# Reference: US6903117B2, “Indole derivatives for the treatment of osteoporosis” (Nikem Research S.R.L., priority 1996, dated 2005)
